Laboratory results taken from US4683198A, “Novel maltose dehydrogenase, process for its production, and analytical method using the same” (Toyo Jozo Kabushiki Kaisha, priority 1983, dated 1987).

Biological target: T1, amylase (Homo sapiens, UniProt P0DUB6)
T1 construct: 500-fold-diluted saliva (a specimen containing amylase, 20 μl); from tissue; host or cells: saliva, 500-fold diluted
T1 sequence (P0DUB6 16-511): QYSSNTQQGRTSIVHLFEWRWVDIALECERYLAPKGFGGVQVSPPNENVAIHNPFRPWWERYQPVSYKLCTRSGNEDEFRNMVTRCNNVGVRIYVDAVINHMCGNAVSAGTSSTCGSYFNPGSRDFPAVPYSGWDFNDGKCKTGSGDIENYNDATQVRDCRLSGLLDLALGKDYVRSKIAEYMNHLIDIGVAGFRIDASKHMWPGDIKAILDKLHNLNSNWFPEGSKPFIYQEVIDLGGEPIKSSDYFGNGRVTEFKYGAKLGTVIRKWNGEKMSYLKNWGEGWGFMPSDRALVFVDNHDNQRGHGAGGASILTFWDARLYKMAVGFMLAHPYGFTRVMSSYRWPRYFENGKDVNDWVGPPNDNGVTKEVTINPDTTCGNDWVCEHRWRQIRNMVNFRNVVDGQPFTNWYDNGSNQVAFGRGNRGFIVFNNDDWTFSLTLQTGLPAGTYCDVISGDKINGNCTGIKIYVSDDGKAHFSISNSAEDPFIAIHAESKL
Experiment: Salivary amylase assay with modified oligosaccharide substrates (Example 3)
Type: biochemical
Settings: 5 mM substrate; 500-fold-diluted saliva; 37° C.
Protocol: Aliquots of the reaction mixture (each 1 ml), in which 5 mM p-nitrophenylpentaoside or p-nitrophenylheptaoside was added to the same reaction mixture described in Example 2, in small test tubes, were pre-incubated at 37° C. Aliquots of 500-fold-diluted saliva (a specimen containing amylase, 20 μl) were added thereto and the mixtures were incubated for 5, 10 and 15 mins., respectively.

O=[N+]([O-])c1ccc(OC2O[C@H](CO)[C@@H](O[C@H]3O[C@H](CO)[C@@H](O[C@H]4O[C@H](CO)[C@@H](O[C@H]5O[C@H](CO)[C@@H](O[C@H]6O[C@H](CO)[C@@H](O[C@H]7O[C@H](CO)[C@@H](O[C@H]8O[C@H](CO)[C@@H](O)[C@H](O)[C@H]8O)[C@H](O)[C@H]7O)[C@H](O)[C@H]6O)[C@H](O)[C@H]5O)[C@H](O)[C@H]4O)[C@H](O)[C@H]3O)[C@H](O)[C@H]2O)cc1 (stereo partly shown) [p-nitrophenylheptaoside]
activity as compared with p-nitrophenylpentaoside: Three times stronger activity
